# Data: ChEMBL document CHEMBL4376804, “Review of Transient Receptor Potential Canonical (TRPC5) Channel Modulators and Diseases” (J Med Chem, 2019)
# Columns and labels:
# Assay type in all cases: cell-based
# [1] = target: T1, Short transient receptor potential channel 5 (Homo sapiens, UniProt Q9UL62); test: Inhibition of TRPC5 (unknown origin) expressed in HEK293/TREx cells assessed as reduction in intracellular calcium level measured for 3 mins by fluo4 dye-based fluorescence assay
# T1 sequence (Q9UL62 whole entry): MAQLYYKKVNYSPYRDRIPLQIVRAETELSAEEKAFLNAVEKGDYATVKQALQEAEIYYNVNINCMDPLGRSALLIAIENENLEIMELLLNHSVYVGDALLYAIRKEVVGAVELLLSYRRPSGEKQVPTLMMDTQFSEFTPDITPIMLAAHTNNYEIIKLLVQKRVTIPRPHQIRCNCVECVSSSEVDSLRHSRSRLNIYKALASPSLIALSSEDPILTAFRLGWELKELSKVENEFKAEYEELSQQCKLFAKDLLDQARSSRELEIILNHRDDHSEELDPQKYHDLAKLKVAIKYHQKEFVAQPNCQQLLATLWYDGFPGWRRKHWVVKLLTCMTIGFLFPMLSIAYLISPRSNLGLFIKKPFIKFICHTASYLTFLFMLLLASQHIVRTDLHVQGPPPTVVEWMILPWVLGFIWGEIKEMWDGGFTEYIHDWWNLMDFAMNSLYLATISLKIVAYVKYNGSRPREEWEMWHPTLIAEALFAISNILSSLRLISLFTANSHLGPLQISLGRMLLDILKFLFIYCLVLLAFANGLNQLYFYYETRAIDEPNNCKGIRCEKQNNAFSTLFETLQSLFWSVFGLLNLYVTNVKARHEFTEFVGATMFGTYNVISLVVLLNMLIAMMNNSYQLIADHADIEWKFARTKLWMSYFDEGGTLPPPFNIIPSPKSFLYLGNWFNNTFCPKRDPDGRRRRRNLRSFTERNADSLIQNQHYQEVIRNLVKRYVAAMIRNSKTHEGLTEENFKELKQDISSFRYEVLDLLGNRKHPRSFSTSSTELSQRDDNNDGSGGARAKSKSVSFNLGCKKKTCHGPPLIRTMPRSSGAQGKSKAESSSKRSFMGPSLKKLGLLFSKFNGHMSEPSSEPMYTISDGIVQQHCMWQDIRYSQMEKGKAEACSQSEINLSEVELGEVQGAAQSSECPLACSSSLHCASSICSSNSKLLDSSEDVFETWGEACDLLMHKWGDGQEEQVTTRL
# [2] = target: T1, Short transient receptor potential channel 5; test: Inhibition of human TRPC5 expressed in HEK293 cells assessed as reduction in gadolinium-induced calcium entry after 30 mins by fluo-4 dye based fluorescence assay
# ORAI1/STIM1 = ORAI1/STIM1 (Rattus norvegicus, UniProt P84903+Q5M848); test: Inhibition of ORAI/STIM1 in thapsigargin treated rat RBL2H3 cells assessed as reduction in store-operated calcium entry after 5 mins by fura-2-AM dye based assay
# Sequence of ORAI1/STIM1 (P84903 whole entry): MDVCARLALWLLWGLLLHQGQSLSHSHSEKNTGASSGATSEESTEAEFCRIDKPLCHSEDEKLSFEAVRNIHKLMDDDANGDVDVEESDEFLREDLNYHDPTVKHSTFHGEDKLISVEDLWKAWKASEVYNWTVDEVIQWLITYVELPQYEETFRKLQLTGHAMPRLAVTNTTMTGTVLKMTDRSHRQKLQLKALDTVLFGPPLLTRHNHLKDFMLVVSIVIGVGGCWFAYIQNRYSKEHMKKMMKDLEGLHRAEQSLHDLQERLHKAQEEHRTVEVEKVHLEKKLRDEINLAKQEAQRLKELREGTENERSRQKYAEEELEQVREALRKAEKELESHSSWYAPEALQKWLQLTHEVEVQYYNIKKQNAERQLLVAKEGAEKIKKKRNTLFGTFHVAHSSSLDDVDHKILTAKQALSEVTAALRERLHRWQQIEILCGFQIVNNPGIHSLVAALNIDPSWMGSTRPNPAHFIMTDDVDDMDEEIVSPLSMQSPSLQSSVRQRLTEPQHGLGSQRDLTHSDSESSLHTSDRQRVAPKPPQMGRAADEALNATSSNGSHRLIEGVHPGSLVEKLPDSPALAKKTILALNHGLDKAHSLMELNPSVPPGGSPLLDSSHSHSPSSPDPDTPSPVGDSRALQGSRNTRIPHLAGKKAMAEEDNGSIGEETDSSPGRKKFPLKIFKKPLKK
# Sequence of ORAI1/STIM1 (Q5M848 whole entry): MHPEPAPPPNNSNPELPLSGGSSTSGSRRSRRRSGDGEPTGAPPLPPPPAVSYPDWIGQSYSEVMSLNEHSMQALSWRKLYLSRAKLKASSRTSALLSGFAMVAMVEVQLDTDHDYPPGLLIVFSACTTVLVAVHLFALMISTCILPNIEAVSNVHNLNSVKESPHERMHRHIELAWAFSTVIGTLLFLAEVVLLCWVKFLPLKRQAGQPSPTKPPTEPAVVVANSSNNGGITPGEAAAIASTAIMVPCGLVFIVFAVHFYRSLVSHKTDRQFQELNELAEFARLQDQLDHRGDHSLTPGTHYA
# [3] = target: T2, Short transient receptor potential channel 3 (Homo sapiens, UniProt Q13507); test: Inhibition of YFP-tagged TRPC3 (unknown origin) expressed in HEK293 cells assessed as reduction carbhocol-induced receptor operated Calcium influx after 5 mins by fura-2-AM dye based assay
# T2 sequence (Q13507 whole entry): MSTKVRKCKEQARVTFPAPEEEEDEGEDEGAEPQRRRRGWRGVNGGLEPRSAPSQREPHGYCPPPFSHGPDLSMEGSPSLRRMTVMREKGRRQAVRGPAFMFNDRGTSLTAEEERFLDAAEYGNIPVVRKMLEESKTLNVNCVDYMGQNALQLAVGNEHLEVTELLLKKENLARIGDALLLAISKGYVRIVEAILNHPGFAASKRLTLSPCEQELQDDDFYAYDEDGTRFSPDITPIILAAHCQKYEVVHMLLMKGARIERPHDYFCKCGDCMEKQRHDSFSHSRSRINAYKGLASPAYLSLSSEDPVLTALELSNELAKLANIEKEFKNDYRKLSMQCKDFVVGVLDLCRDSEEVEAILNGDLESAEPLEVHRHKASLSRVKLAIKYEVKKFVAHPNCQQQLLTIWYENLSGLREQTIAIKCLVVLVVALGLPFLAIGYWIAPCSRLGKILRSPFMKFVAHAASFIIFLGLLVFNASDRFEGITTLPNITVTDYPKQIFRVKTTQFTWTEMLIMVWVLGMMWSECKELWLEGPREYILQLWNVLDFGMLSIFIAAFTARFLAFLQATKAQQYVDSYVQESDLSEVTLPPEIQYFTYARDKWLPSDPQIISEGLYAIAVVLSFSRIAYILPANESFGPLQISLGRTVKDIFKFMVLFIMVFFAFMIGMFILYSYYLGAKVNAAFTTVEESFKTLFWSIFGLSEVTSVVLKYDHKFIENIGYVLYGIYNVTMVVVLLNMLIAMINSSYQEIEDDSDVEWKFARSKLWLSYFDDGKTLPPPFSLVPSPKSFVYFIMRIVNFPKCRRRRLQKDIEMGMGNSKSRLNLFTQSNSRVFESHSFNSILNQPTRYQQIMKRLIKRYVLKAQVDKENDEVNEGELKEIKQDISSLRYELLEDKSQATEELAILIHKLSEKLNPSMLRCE
Compound,IC50 [1],also measured
CC(C)CCc1c(-c2ccccc2C(C)C)ncc2c1c(=O)n(CCCO)c(=O)n2C,195 to 9800 nM,–
Cn1c(=O)n(CCCO)c(=O)c2c(C(O)c3ccc(Cl)cc3)c(Oc3cccc(OC(F)(F)F)c3)sc21 (stereo not drawn),21 to 1700 nM,–
Cc1c(-c2ccc(F)c(F)c2)sc2c1c(=O)n(CCCO)c(=O)n2C,21 to 1700 nM,–
Cc1c(-c2cccc(OC(F)(F)F)c2)n(C)c2c(=O)n(CCCO)c(=O)n(C)c12,408 to 7540 nM,–
Cn1c(=O)n(CCCO)c(=O)c2c1cc(-c1cccc(OC(F)(F)F)c1)n2Cc1ccc(Cl)cc1,408 to 7540 nM,–
Cn1c(=O)n(CCCO)c(=O)c2c(Cc3ccccc3)c(Oc3cccc(Cl)c3)ccc21,1 to 395 nM,–
Cn1c(=O)n(CCCO)c(=O)c2c(Cc3ccc(F)cc3)c(Oc3cccc(OC(F)(F)F)c3)ccc21,1 to 395 nM,–
CC(C)Oc1ccc2c(c1Cc1ccc(F)cc1)c(=O)n(CCCO)c(=O)n2C,1 to 395 nM,–
Cn1c(=O)n(CCCO)c(=O)c2c(Cc3ccccc3)c(Oc3cccc(OC(F)(F)F)c3)ccc21,1 to 395 nM,–
Cn1c(=O)n(CCCO)c(=O)c2c(Cc3ccc(Cl)cc3)c(Oc3cccc(Cl)c3)ncc21,195 to 9800 nM,–
Cc1c(-c2ccc(Cl)cc2)sc2c1c(=O)n(CCCO)c(=O)n2C,21 to 1700 nM,–
O=c1c(O)c(-c2cc(O)c(O)c(O)c2)oc2cc(O)cc(O)c12 [MYRICETIN],–,IC50 [2]: > 10000 nM
Cc1c(-c2cccc(OC(F)(F)F)c2)sc2c1c(=O)n(CCCO)c(=O)n2C,21 to 1700 nM,–
CCCOc1ccc2c(c1Cc1ccc(F)cc1)c(=O)n(CCCO)c(=O)n2C,1 to 395 nM,–
Cn1c(=O)n(CCCO)c(=O)c2c(Cc3ccc(Cl)cc3)c(-c3ccc(Cl)cc3)sc21,21 to 1700 nM,–
CC(C)CCc1c(-c2cccc(Cl)c2)ncc2c1c(=O)n(CCCO)c(=O)n2C,195 to 9800 nM,–
Cc1c(-c2cncc(Cl)c2)sc2c1c(=O)n(CCCO)c(=O)n2C,21 to 1700 nM,–
Cc1c(-c2cccc(OC(F)(F)F)c2)n(Cc2ccc(Cl)cc2)c2c(=O)n(CCCO)c(=O)n(C)c12,408 to 7540 nM,–
Cc1ccc(S(=O)(=O)Nc2ccc(-n3nc(C(F)(F)F)cc3C(F)(F)F)cc2)cc1,–,IC50 (ORAI1/STIM1): 13100 nM; IC50 [3]: 720 nM
Cn1c(=O)n(CCCO)c(=O)c2c(Cc3ccccc3)c(-c3cccc(OC(F)(F)F)c3)ncc21,195 to 9800 nM,–
Cn1c(=O)n(CCCO)c(=O)c2c(Cc3ccccc3)c(-c3cccc(OC(F)(F)F)c3)ccc21,1 to 395 nM,–
Cn1c(=O)n(CCCO)c(=O)c2c(Cc3ccc(Cl)cc3)c(Oc3cccc(Cl)c3)sc21,21 to 1700 nM,–
CCCCOc1ccc2c(c1Cc1ccc(F)cc1)c(=O)n(CCCO)c(=O)n2C,1 to 395 nM,–
CC(C)CCc1c(-c2cccc(OC(F)(F)F)c2)sc2c1c(=O)n(CCCO)c(=O)n2C,21 to 1700 nM,–
Cc1c(-c2cccc(OC(F)(F)F)c2)[nH]c2c(=O)n(CCCO)c(=O)n(C)c12,408 to 7540 nM,–
Cc1c(-c2ccc(Cl)c(Cl)c2)sc2c1c(=O)n(CCCO)c(=O)n2C,21 to 1700 nM,–

Compound,IC50 [1],also measured
Cn1c(=O)n(CCCO)c(=O)c2c(Cc3ccc(Cl)cc3)c(-c3cccc(Cl)c3)oc21,21 to 1700 nM,–
Cn1c(=O)n(CCCO)c(=O)c2c(Cc3ccc(Cl)cc3)c(-c3cccc(Cl)c3)sc21,21 to 1700 nM,–
Cn1c(=O)n(CCCO)c(=O)c2c(Cc3ccc(Cl)cc3)c(Oc3cccc(OC(F)(F)F)c3)sc21,21 to 1700 nM,–
Cc1c(-c2cccc(Cl)c2)sc2c1c(=O)n(CCCO)c(=O)n2C,21 to 1700 nM,–
CC(C)c1ccccc1-c1cc2c(=O)n(CCCO)c(=O)n(C)c2cn1,195 to 9800 nM,–
COc1ccc2c(c1Cc1ccc(F)cc1)c(=O)n(CCCO)c(=O)n2C,1 to 395 nM,–
Cn1c(-c2cccc(OC(F)(F)F)c2)cc2c1c(=O)n(CCCO)c(=O)n2C,408 to 7540 nM,–
CC(C)CCc1c(-c2ccc(Cl)cc2)ncc2c1c(=O)n(CCCO)c(=O)n2C,195 to 9800 nM,–
Cn1c(=O)n(CCCCO)c(=O)c2c(Cc3ccccc3)c(Oc3cccc(OC(F)(F)F)c3)ccc21,1 to 395 nM,–
O=c1cc(-c2ccc(O)cc2)oc2cc(O)cc(O)c12 [APIGENIN],–,IC50 [2]: > 10000 nM
O=c1cc(-c2ccc(O)c(O)c2)oc2cc(O)cc(O)c12 [LUTEOLIN],–,IC50 [2]: > 10000 nM
Cc1c(-c2ccc3ccccc3c2)sc2c1c(=O)n(CCCO)c(=O)n2C,21 to 1700 nM,–
Cn1c(=O)n(CCCO)c(=O)c2c1cc(-c1cccc(Cl)c1)n2Cc1ccc(Cl)cc1,408 to 7540 nM,–
Cn1c(=O)n(CCCOC(=O)O)c(=O)c2c(Cc3ccc(Cl)cc3)c(-c3ccc(Cl)cc3)ncc21,195 to 9800 nM,–
CC(C)c1ccccc1-c1ncc2c(c1Cc1ccc(Cl)cc1)c(=O)n(CCCO)c(=O)n2C,195 to 9800 nM,–
Cc1c(-c2ccccc2Cl)sc2c1c(=O)n(CCCO)c(=O)n2C,21 to 1700 nM,–
Cc1c(-c2cccc(Cl)c2Cl)sc2c1c(=O)n(CCCO)c(=O)n2C,21 to 1700 nM,–
Cc1c(-c2ccc(F)c(C(F)(F)F)c2)sc2c1c(=O)n(CCCO)c(=O)n2C,21 to 1700 nM,–
Cc1c(-c2cccc(F)c2)sc2c1c(=O)n(CCCO)c(=O)n2C,21 to 1700 nM,–
Cn1c(=O)n(CCCO)c(=O)c2c(C(O)c3ccc(Cl)cc3)c(-c3cccc(Cl)c3)sc21 (stereo not drawn),21 to 1700 nM,–
Cn1c(=O)n(CCCO)c(=O)c2c1c(-c1cccc(Cl)c1)cn2Cc1ccc(Cl)cc1,408 to 7540 nM,–
Cn1c(=O)n(CCCO)c(=O)c2c(Cc3ccc(Cl)cc3)c(-c3cccc(OC(F)(F)F)c3)sc21,21 to 1700 nM,–
Cc1c(-c2ccccc2OC(F)(F)F)sc2c1c(=O)n(CCCO)c(=O)n2C,21 to 1700 nM,–
CC(C)CC(O)c1c(-c2cccc(OC(F)(F)F)c2)sc2c1c(=O)n(CCCO)c(=O)n2C (stereo not drawn),21 to 1700 nM,–
O=c1c2c(Cc3ccc(Cl)cc3)c(-c3cccc(Cl)c3)oc2n(CCCO)c(=O)n1CCCO,21 to 1700 nM,–
Cc1cn(Cc2ccc(Cl)cc2)c2c(=O)n(CCCO)c(=O)n(C)c12,408 to 7540 nM,–
